According to patent US20060052387A1, “Organic compounds” (priority 2002, published 2006):
Like-named read-outs stand apart in the source and are kept apart here.

Legend:
[1] = system: M-CSF-stimulated human monocytes; conditions: for numbers of viable cells after the incubation period / numbers of viable cells after the incubation period, Mean: M-CSF 20 ng/mL + DMSO, 24 hours; for numbers of viable cells after the incubation period, Mean: Mean of 3 experiments
Akt = conditions: SALT I 1 or 5 NM (so in the source); M-CSF 100 ng/mL for three minutes
Protocol: Akt1 also called protein kinase B is a serine/threonine kinase involved in a signaling pathway activated by the Bcr-Ab1 activity. Phosphorylated Akt1 phosphorylates cellular proteins and promotes cell proliferation and cell survival.
In vitro Akt kinase assays were performed as described in Kelley et al., supra. Briefly, monocytes were incubated overnight with M-CSF (20 ng/mL), serum-starved for 1.5 hours. […] Akt protein was immunoprecipitated from the cell lysate. The blot was probed with anti-phospho-threonine-Akt, stripped and re-probed for total Akt.

[2] = system: Caspase-3 activity in M-CSF-stimulated human monocytes; conditions: M-CSF 20 ng/mL + DMSO, 18 hours
Excerpt: Caspase-3 is a cysteine aspartate protease involved in the cascade leading to DNA fragmentation. Caspase-3 cleaves one subunit of a dimer called DNA fragmentation factor (DFF) at a tetrapeptide sequence DEVD, the other subunit then activates a nuclease that degrades DNA. […] Caspase-3 activity is defined as the amount of free amino trifluoromethylcoumarin (AFC) released from the caspase-3 selective fluorosubstrate DEVD-AFC measured by fluorometry. In the following table, caspase activity is given in pmol/min/mg.

CS(=O)(=O)O.Cc1ccc(NC(=O)c2ccc(CN3CCN(C)CC3)cc2)cc1Nc1nccc(-c2cccnc2)n1 [SALT I]
numbers of viable cells after the incubation period ([1]; Experiment 1, SALT I 1 pM (so in the source)): 130
numbers of viable cells after the incubation period ([1]; Experiment 1, SALT I 5 pM (so in the source)): 156
numbers of viable cells after the incubation period ([1]; Experiment 1, SALT I 10 pM (so in the source)): 138
numbers of viable cells after the incubation period ([1]; Experiment 1, SALT I 50 pM (so in the source)): 46
numbers of viable cells after the incubation period ([1]; Experiment 1, SALT I 100 pM (so in the source)): 15
numbers of viable cells after the incubation period ([1]; Experiment 2, SALT I 1 pM (so in the source)): 79
numbers of viable cells after the incubation period ([1]; Experiment 2, SALT I 5 pM (so in the source)): 47
numbers of viable cells after the incubation period ([1]; Experiment 2, SALT I 10 pM (so in the source)): 46
numbers of viable cells after the incubation period ([1]; Experiment 2, SALT I 50 pM (so in the source)): 7
numbers of viable cells after the incubation period ([1]; Experiment 2, SALT I 100 pM (so in the source)): 11
numbers of viable cells after the incubation period ([1]; Experiment 3, SALT I 1 pM (so in the source)): 143
numbers of viable cells after the incubation period ([1]; Experiment 3, SALT I 5 pM (so in the source)): 75
numbers of viable cells after the incubation period ([1]; Experiment 3, SALT I 10 pM (so in the source)): 58
numbers of viable cells after the incubation period ([1]; Experiment 3, SALT I 50 pM (so in the source)): 36
numbers of viable cells after the incubation period ([1]; Experiment 3, SALT I 100 pM (so in the source)): 16
number of monocytes surviving at 18 hours (in words) ([1]; M-CSF stimulated monocytes, 18 hours): reduces
numbers of viable cells after the incubation period, Mean ([1]; SALT I 1 pM (so in the source)): 117
numbers of viable cells after the incubation period, Mean ([1]; SALT I 5 pM (so in the source)): 93
numbers of viable cells after the incubation period, Mean ([1]; SALT I 10 pM (so in the source)): 81
numbers of viable cells after the incubation period, Mean ([1]; SALT I 50 pM (so in the source)): 30
numbers of viable cells after the incubation period, Mean ([1]; SALT I 100 pM (so in the source)): 14
Akt phosphorylation (in words) (Akt): Decreases
caspase activity ([2]; Donor 1, SALT I 0.1 pM (so in the source)): 156 pmol/min/mg
caspase activity ([2]; Donor 1, SALT I 1 pM (so in the source)): 356 pmol/min/mg
caspase activity ([2]; Donor 1, SALT I 5 pM (so in the source)): 573 pmol/min/mg
caspase activity ([2]; Donor 1, SALT I 10 pM (so in the source)): 629 pmol/min/mg
caspase activity ([2]; Donor 2, SALT I 0.1 pM (so in the source)): 220 pmol/min/mg
caspase activity ([2]; Donor 2, SALT I 1 pM (so in the source)): 299 pmol/min/mg
caspase activity ([2]; Donor 2, SALT I 5 pM (so in the source)): 329 pmol/min/mg
caspase activity ([2]; Donor 2, SALT I 10 pM (so in the source)): 407 pmol/min/mg
